The source made the active and inactive calls. The calls are words filed in the database; no cut-off is given here.
Tests used:
[1] = target: T1, Protein cereblon/Son of sevenless homolog 1 (Homo sapiens, UniProt Q07889+Q96SW2); assay: PROTAC activity at CRBN/SOS1 in human A549 cells assessed as half life of SOS1 at 3 uM incubated for 24 hrs by immunoblot analysis; assay type: cell-based
[2] = target: T1, Protein cereblon/Son of sevenless homolog 1; assay: PROTAC activity at CRBN/SOS1 in human A549 cells assessed as protein degradation incubated for 24 hrs by immunoblot analysis; assay type: cell-based
[3] = tested on: A549; assay: Effect on SOS2 in human A549 cells upto 10000 nM incubated for 24 hrs by immunoblot analysis; assay type: functional, cell-based
[4] = target: GTPase KRas (Homo sapiens) (UniProt P01116); assay: Inhibition of KRAS signalling in serum-starved human A549 cells assessed as decrease in ERK1/2 phosphorylation upto 10000 nM preincubated for 24 hrs followed by EGF stimulation for 1 hr by immunoblot analysis; assay type: cell-based; conditions: time 25.0 hrs
[5] = target: T1, Protein cereblon/Son of sevenless homolog 1; assay: PROTAC activity at CRBN/SOS1 in human A549 cells assessed as protein degradation at 3 uM by immunoblot analysis; assay type: cell-based; conditions: time <= 72.0 hrs, TDE = time-dependent effect
[6] = target: T1, Protein cereblon/Son of sevenless homolog 1; assay: PROTAC activity at CRBN/SOS1 in MG-132-pretreated human A549 cells assessed as protein degradation at 1 uM incubated for 24 hrs by immunoblot analysis; assay type: cell-based
[7] = target: T1, Protein cereblon/Son of sevenless homolog 1; assay: PROTAC activity at CRBN/SOS1 in lenalidomide-pretreated human A549 cells assessed as protein degradation at 1 uM incubated for 24 hrs by immunoblot analysis; assay type: cell-based
[8] = target: Protein cereblon/Son of sevenless homolog 1 (Homo sapiens, UniProt Q07889+Q96SW2, G12D); assay: PROTAC activity at CRBN/SOS1 in human HPAF-II cells harboring KRAS G12D mutant assessed as protein degradation by immunoblot analysis; assay type: cell-based
[9] = tested on: MIA PaCa-2; assay: Inhibition of colony formation in human MIA PaCa-2 cells upto 30 uM incubated for 14 days by crystal violet staining based analysis; assay type: functional, cell-based; conditions: time 14.0 day
[10] = target: Protein cereblon/Son of sevenless homolog 1 (Homo sapiens, UniProt Q07889+Q96SW2, G12C); assay: PROTAC activity at CRBN/SOS1 in human MIA PaCa-2 cells harboring KRAS G12C mutant assessed as protein degradation by immunoblot analysis; assay type: cell-based
[11] = target: T1, Protein cereblon/Son of sevenless homolog 1; assay: PROTAC activity at CRBN/SOS1 in CHX-pretreated human A549 cells assessed as protein degradation at 3 uM incubated for 12 hrs by immunoblot analysis; assay type: cell-based
[12] = target: T1, Protein cereblon/Son of sevenless homolog 1; assay: PROTAC activity at 6His-tagged human CRBN TBD domain (318 to 425 residues) expressed in Escherichia coli BL21(DE3)/GST-tagged recombinant human SOS1 (569 to 1049 residues) expressed in Escherichia coli BL21(DE3) protein-protein interaction assessed as ternary complex formation incubated for 1 hr by AlphaScreen assay
[13] = tested on: A549; assay: Effect on GSPT1 in human A549 cells upto 10000 nM incubated for 24 hrs by immunoblot analysis; assay type: functional, cell-based
[14] = target: T1, Protein cereblon/Son of sevenless homolog 1; assay: PROTAC activity at CRBN/SOS1 in human A549 cells assessed as half life of SOS1 at 3 uM by immunoblot analysis; assay type: cell-based
[15] = target: T1, Protein cereblon/Son of sevenless homolog 1; assay: PROTAC activity at CRBN/SOS1 in human A549 cells assessed as protein degradation at 0.1 uM incubated for 24 hrs by immunoblot analysis relative to control; assay type: cell-based
[16] = target: T1, Protein cereblon/Son of sevenless homolog 1; assay: PROTAC activity at CRBN/SOS1 in human A549 cells assessed as protein degradation upto 10000 nM incubated for 24 hrs by immunoblot analysis relative to control; assay type: cell-based
[17] = target: T1, Protein cereblon/Son of sevenless homolog 1; assay: PROTAC activity at CRBN/SOS1 in human A549 cells assessed as protein degradation at 10 uM incubated for 24 hrs by immunoblot analysis relative to control; assay type: cell-based
[18] = target: T1, Protein cereblon/Son of sevenless homolog 1; assay: PROTAC activity at CRBN/SOS1 in BI3406-pretreated human A549 cells assessed as protein degradation at 1 uM incubated for 24 hrs by immunoblot analysis; assay type: cell-based
[19] = target: T1, Protein cereblon/Son of sevenless homolog 1; assay: PROTAC activity at CRBN/SOS1 in bafilomycin-pretreated human A549 cells assessed as protein degradation at 1 uM incubated for 24 hrs by immunoblot analysis; assay type: cell-based
[20] = target: T1, Protein cereblon/Son of sevenless homolog 1; assay: PROTAC activity at CRBN/SOS1 in human A549 cells assessed as protein degradation at 3 uM incubated for 24 to 72 hrs by immunoblot analysis; assay type: cell-based; conditions: time 24-72 hrs
[21] = target: T1, Protein cereblon/Son of sevenless homolog 1; assay: PROTAC activity at CRBN/SOS1 in MLN-4924-pretreated human A549 cells assessed as protein degradation at 1 uM incubated for 24 hrs by immunoblot analysis; assay type: cell-based
[22] = target: T1, Protein cereblon/Son of sevenless homolog 1; assay: PROTAC activity at CRBN/SOS1 in human A549 cells assessed as protein degradation at 10 uM incubated for 24 hrs by immunoblot analysis; assay type: cell-based

`C[C@@H]1C[C@@H]([C@H](O)CC2CC(=O)NC(=O)C2)C(=O)[C@@H](C)C1` was tested, and the T1/2 [1] was over 24 h.

For `COc1cc2nc(C)nc(N[C@H](C)c3cc(N)cc(C(F)(F)F)c3)c2cc1O[C@H]1CCN(C(=O)CCCCCCCC(=O)Nc2cccc3c2CN(C2CCC(=O)NC2=O)C3=O)C1` (stereo partly drawn), the DC50 [2] was 209 nM, the Activity ([2]; dose <= 10000.0 µM) was “Dose-Dependent Effect” and the Activity [3] was “inactive”. The inhibition [4] was “Active”, the Activity [5] was “Tde” and the Activity [6] was “inactive”. For the same compound, the Activity [7] was “inactive”, the DC50 [8] was 354 nM and the inhibition [9] was “Active”. For the same compound, the DC50 [10] was 540 nM, the Activity [11] was “Active” and the Activity [12] was “Active”. The Activity [13] was “inactive”, the T1/2 [14] was 22.5 h and the Activity [15] was 68%. For the same compound, the Emax [16] was over 80%, the Activity [17] was 69% and the Activity [18] was “inactive”. For the same compound, the Activity [19] was “Active”, the Activity [20] was “Active” and the Activity [21] was “inactive”.

In the case of `COc1cc2nc(C)nc(N[C@H](C)c3cc(N)cc(C(F)(F)F)c3)c2cc1O[C@H]1CCN(C(=O)CCCCCCCC(=O)Nc2cccc3c2CN(C2CCC(=O)N(C)C2=O)C3=O)C1` (stereo partly drawn), the Activity [22] is reported as “inactive”.

Reference: ChEMBL document CHEMBL5550100, “Discovery of LHF418 as a new potent SOS1 PROTAC degrader” (Bioorg Med Chem, 2024)
